This note sets out measurements from US20130324543A1, “REVERSAL OF HIGH BREAST CANCER RISK IN MAMMALS EXPOSED TO ESTROGENIC CHEMICALS IN UTERO BY ADULT EXPOSURE TO HDAC AND DNMT INHIBITORS” (Georgetown University, priority 2012, published 2013).

“Also recorded” adds a separate entry of the source.

One data set has as its system CYP1B1. The data set can be described thus: CYP1B1 expression (qRT-PCR) in mammary glands of F1-F3 rat offspring. It is filed as in vivo, Sprague Dawley rats. How it is done: Mammary gland tissue obtained from 50-day-old F1-F3 generation offspring (n=5-6 per group per generation) were used. 1 μg of total RNA per sample was used as a template for random primed cDNA synthesis. The cDNA samples were used as templates for qRT-PCR analysis with specific primers for the target gene, rat CYP1B1 using QuantiTect SYBR green PCR kit (Qiagen Inc., Valencia, Calif.) and an ABI Prism 7900 Sequence Detection System. Each sample was run in triplicate. Absolute gene expression levels were determined using Applied Biosystems' SDS2.3 software and the standard curve method. Concentration of each sample was normalized to the reference gene 18S rRNA.
On the technique in general: In qPCR the cycle at which signal appears reflects the starting amount.

Data set [1] concerns mammary tumors. The data set can be described thus: DMBA-induced mammary tumorigenesis in F1-F3 offspring of rat dams fed HF or EE2 diet. The data set is classed as in vivo, Sprague-Dawley rats. How it is done:
Pregnant Sprague-Dawley rats (F0) were fed AI[…] control diet or an isocaloric AI[…] based HF diet, containing 43% energy from corn oil, throughout gestation. Another group of pregnant rats was fed AI[…] diet supplemented with 0.1 ppm ethinyl estradiol (EE2) from day 14 to day 20 of pregnancy. F1 females were mated with F1 males from the same group to produce the F2 generation. The F3 generation was produced in the same manner (FIG. 23). No sibling mating was carried out. […] AI[…] control diet (control, 17% energy from corn oil), isocaloric high fat diet (HF, 43% energy from corn oil) or ethinyl estradiol-supplemented AI[…] diet (EE2, 0.1 ppm). The HF diet was fed for dams through the duration of pregnancy (P) (21 days), while dams were fed EE2 supplemented diet between days P14-20. Once pups (F1) were born, all dams received the control diet. F1 and F2 females (n=8-10) were mated on PND 60 with males from the same group to produce the F2 and F3 generations. All F1 and F2 pregnant dams were fed control diet for the extent of pregnancy. Outcross experiments were also performed: F1 females or males exposed to EE2 or HF diet in utero were crossed with control males or females. […] Tumorigenesis (incidence and multiplicity) was monitored for 20 weeks. […] Louis, Mo.) in 1 ml of peanut oil. […] Tumor growth was measured using a caliper and the length, width, and height of each tumor were recorded. […] Differences in tumor latency and multiplicity were tested by t-test (or Mann-Whitney Rank Sum test) or one-way ANOVA (where appropriate, between groups comparisons after ANOVA were done using Dunn's multi-comparison procedure). Kaplan-Meier survival curves were used to compare differences in tumor incidence, followed by the log-rank test Tumor histopathology was analyzed.

A further data set has as its system mammary glands. Description: Cell proliferation (Ki-67 immunohistochemistry) in PND50 mammary glands. The data set is classed as in vivo, Sprague Dawley rats. How it is done: To determine whether the increase in DNA adduct formation may reflect increased cell proliferation, expression of Ki-67, a marker of cell proliferation, was assessed on PND50 mammary glands using immunohistochemistry. The ki-67 status of each sample was evaluated according to a modified version of the scoring system proposed by Allred et al. The total score for each sample was calculated as the sum of the estimated proportion of positive-staining cells ([…]) plus the estimated intensity of positive-staining cells (0-4).

Data set [2] can be described thus: Puberty onset (vaginal opening) of female mice exposed in utero. It is filed as in vivo, C57BL/6 mice. How it is done:
To assess possible changes in sexual maturation due to in utero ECD exposures during embryogenesis, the day of puberty onset was recorded, as defined based on vaginal opening (VO) in female mice. The mice were examined once a day starting on PND 21. In sexually mature mice, the stage of estrus cycle was determined based on the cytology of their vaginal smear (sampled by pipetting 20 μl PBS in and out of vagina onto a slide) as judged under the microscope. Stage of estrus cycle was determined for each mouse before necropsy and sample collection.

The nature of data set [3]: Body weight and growth of in utero exposed pups. The data set is classed as in vivo, C57BL/6 mice. The following applies: mouse, in vivo. The source says:
Additions to the basic diet were as follows: 1) cornstarch [control]; 2) EE2 0.1 ppm; 3) BPA 0.155 ppm; 4) GEN 500 ppm.

Data set [4] relates to mammary tumors. Description: Acquired tamoxifen (TAM) resistance of mammary tumors in in utero exposed rats. The data set is classed as in vivo. The following applies: 14-week follow-up, 7% in the control group.
Data set [5] is described as follows: Immediate adverse effects of dietary exposure in adult non-pregnant littermates of dams. It is filed as in vivo, mice. As to conditions: last day of dietary exposure, data not shown. How it is done:
For ethical reasons non-pregnant littermate females were used for blood collection instead of the dams, and the samples were taken on the last day of their dietary exposure. Blood was collected by heart puncture of anesthetized mice prior to euthanasia, and serum was separated by centrifugation (1000×g for 10 min) and stored frozen until hormone measurements.
In addition, possible immediate adverse effects of EE2, BPA and GEN exposure for adult mice were evaluated using the non-pregnant littermates of dams. Their body weights were recorded and the mammary gland morphology examined on the last day of their dietary exposure.

Another data set has as its system miRNAs. Description: miRNA expression in adult mammary glands of in utero exposed rats. The data set is classed as in vivo.
The mark [6] stands for this setting: F1 generation (daughters) vs controls.
Where [7] appears, read: F2 generation (granddaughters) vs controls.
[8] abbreviates: F3 generation (great-granddaughters) vs controls.

Method for miRNAs: Since several miRNAs are known to be suppressed by E2 in MCF-7 human breast cancer cells (Maillot et al. Cancer Res 2009), we determined whether persistent changes in miRNA expression may be seen in the adult mammary glands of rats exposed to E2 in utero. miRNAs were measured using applied Biosystems TaqManR Array Rodent MicroRNA.

Take `C#C[C@]1(O)CC[C@H]2[C@@H]3CCc4cc(O)ccc4[C@H]3CC[C@@]21C` [EE2, ethinyl estradiol]: the “CYP1B1 expression in normal mammary glands” value in the data set with CYP1B1 (F1-F3 generation offspring) was “up-regulated”. Also, the “expression levels of CYP1B1” value in the data set with CYP1B1 (F1 and F2 generations, vs control or HF offspring) was “significantly higher”. The CYP1B1 expression levels result in the data set on CYP1B1 (F3 generation, vs controls) is listed as “higher than in the controls”. Moreover, the Mammary tumor incidence entry in the data set on mammary tumors [1] (setting [6]) is “higher”; with mammary tumors [1] (setting [7]) it was “neither tumor incidence (p=0.68) nor multiplicity (p=0.49) was statistically different”; in the data set on mammary tumors [1] (F2 outcross, control ♀ x exposed ♂), 33%; with mammary tumors [1] (F2 outcross, exposed ♀ x control ♂) it was 62%; in the data set on mammary tumors [1] (setting [8]), “also higher, but not statistically significant”. For the same compound, the mammary tumor multiplicity entry is “higher” in the data set on mammary tumors [1] (setting [6]), “neither tumor incidence (p=0.68) nor multiplicity (p=0.49) was statistically different” with mammary tumors [1] (setting [7]) and “significantly higher” in the data set with mammary tumors [1] (setting [8]). In the data set on mammary tumors [1] (F2 outcross EE2♀×C♂ vs controls), the tumor multiplicity result is on record as “significantly higher”. In addition, the “cell proliferation by ki-67” value is “non-significantly increased” in the data set with mammary glands (F1 generation) and “significantly lower” with mammary glands (F2 generation, compared to the controls). Further, the “puberty onset / vaginal opening” value in data set [2] (female offspring, in utero exposure) is on record as “significantly earlier puberty onset; also recorded: significantly accelerated”. The puberty onset in data set [2] (female pups, instead of PND 32) stood at 27 PND. For the same compound, the “birthweight, or postnatal weight development” value in data set [3] was “did not alter”. For the same compound, the “acquired resistance to TAM” value with mammary tumors [4] turned out to be 50%. Moreover, the “body weight or mammary epithelial development” value in data set [5] was “No significant differences”. Besides, in the data set on miRNAs (mammary glands of rats exposed in utero), the “expression of miR-26a, miR-101, miR-148, miR-152, miR-194, miR-26a/b” value was “suppressed”. Besides, the “expression of several miRNAs in the mammary gland” value in the data set with miRNAs (maternal exposure) is given as “permanent down-regulation”.
